Where two headings read alike, the source gives them in different places. Marks after values point to notes of the source that are not given here. Where a SMILES comes first, the peptide text is derived from it. Bridges are numbered along the chain shown (N, C = ends). [ ]: non-standard residue; d: D form. Aad = N[C@@H](CCCC(=O)O)C(=O)O; Dab = NCC[C@H](N)C(=O)O; Mpa = O=C(O)CCS
Tests used:
[1] = target: T1, V1a receptor (Homo sapiens, UniProt P37288); assay: V1a Human Vasopressin GPCR Cell Based Agonist Calcium Flux Assay; settings: Table 3, n = 2; for Emax: read-out: V1a Highest agonist effect (% of AVP)
T1 construct: host or cells: CHO cells
T1 sequence (P37288 whole entry): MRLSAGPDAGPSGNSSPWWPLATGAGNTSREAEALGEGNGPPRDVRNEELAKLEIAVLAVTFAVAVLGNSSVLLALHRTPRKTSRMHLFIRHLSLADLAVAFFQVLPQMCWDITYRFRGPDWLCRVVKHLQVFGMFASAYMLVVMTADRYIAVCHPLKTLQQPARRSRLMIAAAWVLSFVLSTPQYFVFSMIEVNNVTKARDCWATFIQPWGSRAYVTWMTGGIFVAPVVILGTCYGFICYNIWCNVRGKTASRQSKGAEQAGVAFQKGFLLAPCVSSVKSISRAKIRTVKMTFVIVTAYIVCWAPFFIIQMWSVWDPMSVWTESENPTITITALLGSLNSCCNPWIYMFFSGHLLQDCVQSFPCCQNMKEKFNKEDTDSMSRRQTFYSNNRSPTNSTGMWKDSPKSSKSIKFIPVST
Procedure: Peptides of Formula (I) include Mpa-Tyr-Phe-Hgn-Asn-Cys-Pro-Lys(X)a-Gly-NH2 [SEQ ID NO. 24]; where (X)a is a peptide with “a” residues and each residue X is independently selected from Gly, and a D- or L-amino acid version of Ala, Lys, Orn, Glu, and Asp, where “a” is 0-10. V1a Human Vasopressin GPCR Cell Based Agonist Calcium Flux Assay were conducted at Eurofins Cerep SA (France) on a fee for service basis. Human recombinant CHO cells expressing human V1 receptors were distributed in microplates. Intracellular calcium signal was detected by fluorimetry, and the signal was acquired before and after addition of a known agonist concentration. The following agonist concentrations were tested (nM); 0.0128, 0.064, 0.32, 1.6, 8, 40, 200, and 1,000. […] All assays were performed in duplicate. Changes in fluorescence intensity reflected changes in the concentration of free cytosolic calcium. […] The half-maximal effective concentration (EC50) was determined by a non-linear regression analysis of the concentration-response curves generated with mean replicate values using Hill equation curve fitting (Cerep, I'Evescault, France).
V1a Human Vasopressin GPCR Cell Based Agonist Calcium Flux Assay were conducted using human recombinant CHO cells expressing human V1 receptor. Briefly, human recombinant CHO cells expressing human V1 receptor were distributed in microplates at 4.5×10^4 cells/well. The fluorescent probe (Fluo4 Direct, Invitrogen) mixed with probenicid in HBSS buffer (Invitrogen) complemented with 20 mM HEPES (Invitrogen) (pH 7.4) is then added into each well and equilibrated with the cells for 60 min at 37° C. then 15 min at 22° C. Thereafter, the assay plates are positioned in a microplate reader (CellLux, PerkinElmer) which is used for the addition of the test compound, reference agonist or HBSS buffer (basal control), and the measurements of changes in fluorescence intensity which varies proportionally to the free cytosolic Ca^2+ ion concentration. The following agonist concentrations were tested (nM), 0.0128, 0.064, 0.32, 1.6, 8, 40, 200, and 1,000. […] All assays were performed in duplicate. Changes in fluorescence intensity reflected changes in the concentration of free cytosolic calcium. […] Referring to FIG. 3 and Table 4, the half-maximal effective concentration (EC50) was determined by non-linear regression analysis of the concentration-response curves generated with mean replicate values using Hill equation curve fitting (Cerep, I'Evescault, France).

[2] = Therapeutic index (NOAEL/NOEL): paleness, lethargy, ataxia observation in Sprague-Dawley rats (Example 7); format: in vivo; settings: for Paleness (Duration, hrs; SD) / Highest dose with no-observed effect level or paleness (NOEL) / NOAEL/NOEL (therapeutic index) / NOAEL at 24 h / NOAEL: S.C.; for Highest dose with no-observed effect level or paleness (NOEL) / NOAEL/NOEL (therapeutic index) / NOAEL at 24 h / Marked adverse effect (Lowest dose first showed Ataxia) / Mild adverse effect (Lowest dose first showed Lethargy) / NOAEL: rat; for NOAEL at 24 h: male, Sprague-Dawley; for NOAEL at 24 h / Marked adverse effect (Lowest dose first showed Ataxia) / Mild adverse effect (Lowest dose first showed Lethargy) / NOAEL: in vivo, sc; for NOAEL at 24 h / NOAEL: read-out: Highest dose with no-observed adverse effect level without lethargy (NOAEL)
Source text: As used herein, the term “therapeutic index” (TI; also referred to as therapeutic ratio) is a quantitative measure of the relative safety of a drug. […] For the purpose of the present application, lethargy is a lack of energy and/or sleepiness which is visually observed in rats as a lack of mobility, such as a lack of mobility even in the presence of human activity. For the purpose of present specification, peripheral vasoconstriction is visually observed by a paleness of the extremities (e.g., skin of hands, feet, ears, and lips). In rats, peripheral vasoconstriction is determined by a side-by-side comparison of ear paleness in treated subjects (e.g., Sprague Dawley rats, a white rat with easily visualizable changes in redness/paleness) vs. untreated control subjects. The V1a agonist (or partial agonist) with a high therapeutic index will have a better safety profile than that with a low therapeutic index by providing a wider margin of safety for dosing during the treatment of the disease. This NOAEL/NOEL ratio, being a quantitative measure of the relative safety, is a comparison of the amount of a therapeutic agent that causes the therapeutic effect (useful effect, vasoconstriction for the purpose of the present specification) to the amount that causes toxicity. A V1a agonist that causes severe vasoconstriction will affect not only the peripheral vessels, with several layer of smooth muscles, but also other vessels present in other organs (e.g., heart, lungs, kidney, brain) and this will result in observed lethargy and eventually ataxia. A partial agonist is less likely to reach such an extreme level of vasoconstriction and is believed to have a higher therapeutic index.
In this study, 8 to 10 weeks male Sprague-Dawley rats (Charles River; Wilmington, MA) under isoflurane anesthesia (n=3 or 6) were intravenously (IV) or subcutaneously (SC) injected or administered with various test articles. Prior to administration of test articles, the injection area was clipped free of fur, to allow for clear visualization of the dose site, and animal weight was measured and recorded. Animals were housed two per cage. […] Lethargy is when the animal eyes cannot fully open and is associated deep breathing and limited of movement even in the presence of human.

[3] = CHO cells expressing human V1 receptor, read-out: Estimated V1a EC50 (nM)
[4] = at the Marked adverse effect dose
[5] = at the Mild adverse effect dose

Structure (SMILES)	EC50 [1, 3] [nM]	Emax [1] [%]	Paleness (Duration, hrs; SD) [2, 4]	Paleness (Duration, hrs; SD) [2, 5]	Paleness (Duration, hrs; SD) ([2]; at the NOAEL dose)	Paleness (Duration, hrs; SD) ([2]; at the NOEL dose)	Highest dose with no-observed effect level or paleness (NOEL) [2] [mg/kg]	NOAEL/NOEL (therapeutic index) [2]	NOAEL at 24 h [2] [mg/kg]	Marked adverse effect (Lowest dose first showed Ataxia) [2] [mg/kg]	Mild adverse effect (Lowest dose first showed Lethargy) [2] [mg/kg]	EC50 ([1]; cells printed in μM, read-out: Estimated V1a EC50) [nM]	NOAEL [2] [mg/kg]
NCC(=O)NCCCC[C@H](NC(=O)[C@@H]1CCCN1C(=O)[C@@H]1CSSCCC(=O)N[C@@H](Cc2ccc(O)cc2)C(=O)N[C@@H](Cc2ccccc2)C(=O)N[C@@H](CCCC(N)=O)C(=O)N[C@@H](CC(N)=O)C(=O)N1)C(=O)NCC(N)=O [SEQ ID NO. 8, Mpa-Tyr-Phe-Hgn-Asn-Cys-Pro-Lys(X)-Gly-NH2; X = Gly]	25.3	40.3	(>6.12)* hrs	(>6.12)* hrs	(6.20 ± 0.28) hrs	None Observed	0.0015	10	0.15	1.5	0.5	–	–
NCC(=O)NCC(=O)NCCCC[C@H](NC(=O)[C@@H]1CCCN1C(=O)[C@@H]1CSSCCC(=O)N[C@@H](Cc2ccc(O)cc2)C(=O)N[C@@H](Cc2ccccc2)C(=O)N[C@@H](CCCC(N)=O)C(=O)N[C@@H](CC(N)=O)C(=O)N1)C(=O)NCC(N)=O [SEQ ID NO. 9, Mpa-Tyr-Phe-Hgn-Asn-Cys-Pro-Lys(X)a-Gly-NH2; (X)a = (Gly)2]	38.2	37	(>5.99)* hrs	(>6.04)* hrs	(5.74 ± 0.45) hrs	None Observed	0.0015	100	0.15	1.5	0.5	–	–
CC(=O)NCC(=O)NCC(=O)NCC(=O)NCC(=O)NCC(=O)NCC(=O)NCC(=O)NCC(=O)NCC(=O)NCCCC[C@H](NC(=O)[C@@H]1CCCN1C(=O)[C@@H]1CSSCCC(=O)N[C@@H](Cc2ccc(O)cc2)C(=O)N[C@@H](Cc2ccccc2)C(=O)N[C@@H](CCCC(N)=O)C(=O)N[C@@H](CC(N)=O)C(=O)N1)C(=O)NCC(N)=O [SEQ ID NO. 26, Mpa-Tyr-Phe-Hgn-Asn-Cys-Pro-Lys(X)a-Gly-NH2; (X)a = (Gly)9-Ac]	–	40	–	–	–	–	–	–	–	–	–	> 10000	–
NC[C@H](N)C(=O)NCCCC[C@H](NC(=O)[C@@H]1CCCN1C(=O)[C@@H]1CSSCCC(=O)N[C@@H](Cc2ccc(O)cc2)C(=O)N[C@@H](Cc2ccccc2)C(=O)N[C@@H](CCCC(N)=O)C(=O)N[C@@H](CC(N)=O)C(=O)N1)C(=O)NCC(N)=O [SEQ ID NO. 29, Mpa-Tyr-Phe-Hgn-Asn-Cys-Pro-Lys(X)a-Gly-NH2; (X)a = Dap]	–	7.5	–	–	–	–	–	–	–	–	–	–	–
NCCC[C@H](NC(=O)[C@@H]1CCCN1C(=O)[C@@H]1CSSCCC(=O)N[C@@H](Cc2ccc(O)cc2)C(=O)N[C@@H](Cc2ccccc2)C(=O)N[C@@H](CCCC(N)=O)C(=O)N[C@@H](CC(N)=O)C(=O)N1)C(=O)NCC(N)=O [SEQ ID NO. 30, Mpa-Tyr-Phe-Hgn-Asn-Cys-Pro-Orn-Gly-NH2]	–	–	–	–	–	–	0.0005	–	–	0.044	0.015	–	0.005
NCC[C@H](NC(=O)[C@@H]1CCCN1C(=O)[C@@H]1CSSCCC(=O)N[C@@H](Cc2ccc(O)cc2)C(=O)N[C@@H](Cc2ccccc2)C(=O)N[C@@H](CCCC(N)=O)C(=O)N[C@@H](CC(N)=O)C(=O)N1)C(=O)NCC(N)=O [SEQ ID NO. 31, Mpa-Tyr-Phe-Hgn-Asn-Cys-Pro-Dab-Gly-NH2] ([Mpa]YF[Aad](NH2)NCP[Dab]G-NH2; disulfide 1-6)	–	–	–	–	–	–	0.0005	–	–	0.045	0.015	–	0.005
